Measured values published in patent publication US10681909B2, “Herbicidal triazoles” (FMC Corporation, priority 2014, dated 2020).

Assays:
corn [1] = test: Test A preemergence; type: in vivo, Zea mays; details: Zea mays, pre-emergence, 240 h, 0 to 100 scale (0 no effect, 100 complete control)
Summary of the method: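 Test chemicals in a non-phytotoxic solvent with surfactant were applied as a directed soil spray preemergence to seeds sown in loam/sand. Postemergence sprays went to plants 2–10 cm tall at the one- to two-leaf stage. A dash means no result.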

corn [2] = test: Test C preemergence; type: in vivo, Zea mays; details: for Plant response rating (scale of 0 to 100 where 0 is no effect and 100 is complete control): Corn, preemergence; for Corn plant response rating (0 to 100): Preemergence, visual rating after 13 to 15 d
Summary of the method: (§1)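 Test chemicals in a non-phytotoxic solvent mixture with surfactant were applied to pots of plants at 2 to 18 cm (1- to 4-leaf stage) for postemergence treatment, grown in a peat-based medium with vermiculite, starter nutrients and dolomitic limestone. Preemergence treatment was to seeds freshly planted in loam soil mixed with sand.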

lambsquarters = test: Test C preemergence; type: in vivo, Chenopodium album; details: for Plant response rating (scale of 0 to 100 where 0 is no effect and 100 is complete control): Lambsquarters, preemergence; for Lambsquarters plant response rating (0 to 100): Preemergence, visual rating after 13 to 15 d
Summary of the method: as §1

oilseed rape [3] = test: Test C preemergence; type: in vivo, Brassica napus; details: for Plant response rating (scale of 0 to 100 where 0 is no effect and 100 is complete control): Oilseed Rape, preemergence; for Oilseed Rape plant response rating (0 to 100): Preemergence, visual rating after 13 to 15 d
Summary of the method: as §1

canarygrass = test: Test D preemergence; type: in vivo, Phalaris minor; details: scale 0 to 100
Summary of the method: (§2)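 Test chemicals in a non-phytotoxic solvent with surfactant applied preemergence to seeds in silt loam soil, or postemergence to plants 2–18 cm tall (1- to 4-leaf stage) grown in peat-based medium. Injury visually rated against untreated controls after 14–21 d in a controlled environment.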

galium = test: Test D preemergence; type: in vivo, Galium aparine; details: scale 0 to 100
Summary of the method: as §2

bromegrass, down = test: Test D preemergence; type: in vivo, Bromus tectorum; details: scale 0 to 100
Summary of the method: as §2

oilseed rape [4] = test: Test D preemergence; type: in vivo, Brassica napus; details: scale 0 to 100
Summary of the method: as §2

buckwheat, wild = test: Test D preemergence; type: in vivo, Polygonum convolvulus; details: scale 0 to 100
Summary of the method: as §2

radish, wild = test: Test D preemergence; type: in vivo, Raphanus raphanistrum; details: scale 0 to 100
Summary of the method: as §2

speedwell = test: Test D postemergence; type: in vivo, Veronica persica; details: scale 0 to 100
Summary of the method: as §2

barley, spring = test: Test D postemergence; type: in vivo, Hordeum vulgare; details: scale 0 to 100
Summary of the method: as §2

barley, winter = test: Test D postemergence; type: in vivo, Hordeum vulgare; details: scale 0 to 100
Summary of the method: as §2

oat, wild = test: Test D postemergence; type: in vivo, Avena fatua; details: scale 0 to 100
Summary of the method: as §2

## CCOc1nc(-c2ccc(F)cc2)nn1Cc1ccnc(C(F)(F)F)c1 [Compound 8, 4-[[5-ethoxy-3-(4-fluorophenyl)-1H-1,2,4-triazol-1-yl]methyl]-2-(trifluoromethyl)pyridine]
Corn [1]; 125 g ai/ha
  Corn plant response rating (crop injury, 0 = no effect, 100 = complete kill) at 125 g/ha: 90%
Corn [1]; 500 g ai/ha, approx. 10 d
  Corn plant response rating (crop injury, 0 = no effect, 100 = complete kill) at 500 g/ha: 100%
Corn [2]; 125 g ai/ha
  Plant response rating (scale of 0 to 100 where 0 is no effect and 100 is complete control): 65
Corn [2]; 250 g ai/ha
  Plant response rating (scale of 0 to 100 where 0 is no effect and 100 is complete control): 65
Corn [2]; 31 g ai/ha
  Corn plant response rating (0 to 100): 35
Corn [2]; 62 g ai/ha
  Corn plant response rating (0 to 100): 55
lambsquarters; 125 g ai/ha
  Plant response rating (scale of 0 to 100 where 0 is no effect and 100 is complete control): 100
lambsquarters; 250 g ai/ha
  Plant response rating (scale of 0 to 100 where 0 is no effect and 100 is complete control): 100
lambsquarters; 31 g ai/ha
  Lambsquarters plant response rating (0 to 100): 95
lambsquarters; 62 g ai/ha
  Lambsquarters plant response rating (0 to 100): 98
Oilseed rape [3]; 125 g ai/ha
  Plant response rating (scale of 0 to 100 where 0 is no effect and 100 is complete control): 100
Oilseed rape [3]; 250 g ai/ha
  Plant response rating (scale of 0 to 100 where 0 is no effect and 100 is complete control): 100
Oilseed rape [3]; 31 g ai/ha
  Oilseed Rape plant response rating (0 to 100): 95
Oilseed rape [3]; 62 g ai/ha
  Oilseed Rape plant response rating (0 to 100): 95
canarygrass; 31 g ai/ha
  Plant response rating: Canarygrass: 50
canarygrass; 62 g ai/ha
  Plant response rating: Canarygrass: 100
canarygrass; 125 g ai/ha
  Plant response rating: Canarygrass: 100
canarygrass; 250 g ai/ha
  Plant response rating: Canarygrass: 100
galium; 62 g ai/ha
  Plant response rating: Galium: 35
galium; 125 g ai/ha
  Plant response rating: Galium: 50
galium; 250 g ai/ha
  Plant response rating: Galium: 70
bromegrass, down; 31 g ai/ha
  Plant response rating: Bromegrass, Down: 10
bromegrass, down; 62 g ai/ha
  Plant response rating: Bromegrass, Down: 35
bromegrass, down; 125 g ai/ha
  Plant response rating: Bromegrass, Down: 100
bromegrass, down; 250 g ai/ha
  Plant response rating: Bromegrass, Down: 100
Oilseed rape [4]; 62 g ai/ha
  Plant response rating: Oilseed Rape: 60
Oilseed rape [4]; 125 g ai/ha
  Plant response rating: Oilseed Rape: 100
Oilseed rape [4]; 250 g ai/ha
  Plant response rating: Oilseed Rape: 100
buckwheat, wild; 31 g ai/ha
  Plant response rating: Buckwheat, Wild: 35
buckwheat, wild; 62 g ai/ha
  Plant response rating: Buckwheat, Wild: 100
buckwheat, wild; 125 g ai/ha
  Plant response rating: Buckwheat, Wild: 100
buckwheat, wild; 250 g ai/ha
  Plant response rating: Buckwheat, Wild: 100
radish, wild; 62 g ai/ha
  Plant response rating: Radish, Wild: 60
radish, wild; 125 g ai/ha
  Plant response rating: Radish, Wild: 100
radish, wild; 250 g ai/ha
  Plant response rating: Radish, Wild: 100
speedwell; 31 g ai/ha
  Plant response rating: Speedwell: 100
speedwell; 62 g ai/ha
  Plant response rating: Speedwell: 100
speedwell; 125 g ai/ha
  Plant response rating: Speedwell: 100
speedwell; 250 g ai/ha
  Plant response rating: Speedwell: 100
barley, spring; 31 g ai/ha
  Plant response rating: Barley, Spring: 25
barley, spring; 62 g ai/ha
  Plant response rating: Barley, Spring: 30
barley, spring; 125 g ai/ha
  Plant response rating: Barley, Spring: 35
barley, spring; 250 g ai/ha
  Plant response rating: Barley, Spring: 35
barley, winter; 31 g ai/ha
  Plant response rating: Barley, Winter: 20
barley, winter; 62 g ai/ha
  Plant response rating: Barley, Winter: 30
barley, winter; 125 g ai/ha
  Plant response rating: Barley, Winter: 35
barley, winter; 250 g ai/ha
  Plant response rating: Barley, Winter: 35
oat, wild; 31 g ai/ha
  Plant response rating: Oat, Wild: 35
oat, wild; 62 g ai/ha
  Plant response rating: Oat, Wild: 45
oat, wild; 125 g ai/ha
  Plant response rating: Oat, Wild: 45
oat, wild; 250 g ai/ha
  Plant response rating: Oat, Wild: 55
